Assay [1] deals with T1, histamine H1 receptor (H1R) (Homo sapiens, UniProt P35367).
T1 construct: gene HRH1; full-length receptor expected in commercial panel cell line (Eurofins/DiscoverX SafetyScan47)
The assay can be described thus: cell-based SafetyScan47 dose-response assay, […] doses. The conditions noted are these: read-out: half-maximal inhibitory concentration.

Assay [2] deals with T2, cannabinoid receptor 2 (CB2) (Homo sapiens, UniProt P34972).
T2 construct: gene CNR2; full-length receptor expected in commercial panel cell line (Eurofins/DiscoverX SafetyScan47)
The assay can be described thus: cell-based GPCR cAMP modulation assay, […] doses. The settings on record: read-out: half-maximal effective concentration.

The target in assay [3] is T3, serotonin 1A receptor (5-HT1A) (Homo sapiens, UniProt P08908).
T3 construct: gene HTR1A; full-length receptor expected in commercial panel cell line (Eurofins/DiscoverX SafetyScan47)
The assay can be described thus: cell-based SafetyScan47 dose-response assay, […] doses. The settings on record: read-out: half-maximal effective concentration.

For assay [4], the target named is T4, serotonin 1B receptor (5-HT1B) (Homo sapiens, UniProt P28222).
T4 construct: gene HTR1B; full-length receptor expected in commercial panel cell line (Eurofins/DiscoverX SafetyScan47)
The description is as above. The conditions noted are these: read-out: half-maximal effective concentration.

Assay [5] has as its target T5, histamine H2 receptor (H2R) (Homo sapiens, UniProt P25021).
T5 construct: gene HRH2; full-length receptor expected in commercial panel cell line (Eurofins/DiscoverX SafetyScan47)
The assay is described as above. The settings on record: read-out: half-maximal inhibitory concentration.

Assay [6] deals with T6, cannabinoid receptor 1 (CB1) (Homo sapiens, UniProt P21554).
T6 construct: gene CNR1; full-length receptor expected in commercial panel cell line (Eurofins/DiscoverX SafetyScan47)
The assay can be described thus: cell-based GPCR cAMP modulation assay, […] doses. The settings on record: read-out: half-maximal effective concentration.

T1 sequence (P35367 whole entry): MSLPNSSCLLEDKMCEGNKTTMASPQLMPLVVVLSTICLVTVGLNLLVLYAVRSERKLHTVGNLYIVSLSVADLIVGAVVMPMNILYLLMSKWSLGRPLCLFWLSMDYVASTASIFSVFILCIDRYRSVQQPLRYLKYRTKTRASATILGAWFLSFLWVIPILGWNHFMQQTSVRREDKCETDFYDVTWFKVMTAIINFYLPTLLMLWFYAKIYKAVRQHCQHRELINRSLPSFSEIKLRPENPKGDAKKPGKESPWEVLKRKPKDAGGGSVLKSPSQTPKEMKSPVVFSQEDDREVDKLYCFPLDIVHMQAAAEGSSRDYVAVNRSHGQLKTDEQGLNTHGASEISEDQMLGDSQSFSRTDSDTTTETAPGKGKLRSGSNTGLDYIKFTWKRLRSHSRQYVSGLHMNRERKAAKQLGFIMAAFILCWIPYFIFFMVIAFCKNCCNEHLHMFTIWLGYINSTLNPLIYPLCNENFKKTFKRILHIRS
T4 sequence (P28222 whole entry): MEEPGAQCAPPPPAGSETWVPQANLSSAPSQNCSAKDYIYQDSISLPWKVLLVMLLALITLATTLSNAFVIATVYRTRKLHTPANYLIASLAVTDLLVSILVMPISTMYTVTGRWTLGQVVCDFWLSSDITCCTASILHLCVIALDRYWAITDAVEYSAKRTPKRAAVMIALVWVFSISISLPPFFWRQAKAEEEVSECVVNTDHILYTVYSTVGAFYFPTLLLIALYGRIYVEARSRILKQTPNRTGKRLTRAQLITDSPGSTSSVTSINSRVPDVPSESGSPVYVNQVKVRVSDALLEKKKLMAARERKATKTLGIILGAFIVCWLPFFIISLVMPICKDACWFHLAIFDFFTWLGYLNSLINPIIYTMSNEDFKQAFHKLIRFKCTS
T6 sequence (P21554 whole entry): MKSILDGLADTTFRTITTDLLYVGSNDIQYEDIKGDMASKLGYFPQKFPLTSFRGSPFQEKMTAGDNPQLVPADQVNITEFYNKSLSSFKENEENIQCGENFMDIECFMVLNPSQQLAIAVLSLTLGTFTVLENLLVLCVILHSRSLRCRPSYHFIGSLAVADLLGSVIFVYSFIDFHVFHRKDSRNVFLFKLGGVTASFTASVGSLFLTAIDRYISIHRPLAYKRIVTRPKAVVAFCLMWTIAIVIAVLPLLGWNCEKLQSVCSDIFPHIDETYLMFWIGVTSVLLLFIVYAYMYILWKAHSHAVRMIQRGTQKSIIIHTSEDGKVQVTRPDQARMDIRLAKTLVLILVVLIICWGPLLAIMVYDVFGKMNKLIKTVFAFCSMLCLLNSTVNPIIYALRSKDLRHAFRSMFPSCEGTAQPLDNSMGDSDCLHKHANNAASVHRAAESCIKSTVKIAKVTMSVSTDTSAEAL
T5 sequence (P25021 whole entry): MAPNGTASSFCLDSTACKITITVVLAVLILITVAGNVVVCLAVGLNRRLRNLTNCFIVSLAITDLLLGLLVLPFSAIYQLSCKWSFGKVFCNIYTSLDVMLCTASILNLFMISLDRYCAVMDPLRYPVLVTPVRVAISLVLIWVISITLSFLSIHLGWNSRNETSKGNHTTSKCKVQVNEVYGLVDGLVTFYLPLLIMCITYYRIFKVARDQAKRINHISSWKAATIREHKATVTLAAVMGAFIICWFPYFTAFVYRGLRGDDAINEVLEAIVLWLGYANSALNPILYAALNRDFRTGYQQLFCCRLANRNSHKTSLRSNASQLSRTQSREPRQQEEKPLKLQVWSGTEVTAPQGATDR
T2 sequence (P34972 whole entry): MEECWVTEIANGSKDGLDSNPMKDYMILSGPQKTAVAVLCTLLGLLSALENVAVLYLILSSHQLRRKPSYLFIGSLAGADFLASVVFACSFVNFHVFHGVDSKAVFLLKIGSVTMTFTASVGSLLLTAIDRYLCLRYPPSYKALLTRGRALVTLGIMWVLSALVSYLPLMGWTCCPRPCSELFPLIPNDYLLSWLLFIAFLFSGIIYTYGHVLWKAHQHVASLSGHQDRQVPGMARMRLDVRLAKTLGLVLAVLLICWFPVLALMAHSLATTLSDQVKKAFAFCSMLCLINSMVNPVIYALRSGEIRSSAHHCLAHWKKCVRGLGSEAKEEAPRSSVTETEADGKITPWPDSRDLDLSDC
T3 sequence (P08908 whole entry): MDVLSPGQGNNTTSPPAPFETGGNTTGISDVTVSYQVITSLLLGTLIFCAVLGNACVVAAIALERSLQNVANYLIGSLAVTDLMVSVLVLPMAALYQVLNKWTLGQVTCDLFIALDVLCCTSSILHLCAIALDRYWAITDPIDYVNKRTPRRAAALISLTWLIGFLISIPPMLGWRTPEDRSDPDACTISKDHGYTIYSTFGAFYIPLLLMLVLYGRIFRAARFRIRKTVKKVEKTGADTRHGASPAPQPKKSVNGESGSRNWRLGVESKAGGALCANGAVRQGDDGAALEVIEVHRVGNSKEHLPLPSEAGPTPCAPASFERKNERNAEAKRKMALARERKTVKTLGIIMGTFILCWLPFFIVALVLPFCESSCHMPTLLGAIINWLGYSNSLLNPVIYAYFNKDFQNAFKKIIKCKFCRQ

Consider `CCCCCCCCCCCCCCC(=O)O[C@H](CC(=O)[O-])C[N+](C)(C)C` [pentadecanoylcarnitine], for which the IC50 amounted to 10.9 µM in assay [1] and 6.1 µM in assay [5]. Moreover, the EC50 in assay [2] was 3.2 µM; in assay [3], 9.6 µM; in assay [4], 9.3 µM; in assay [6], 3.7 µM.

The record behind these values is publication PMC9399118, “Pentadecanoylcarnitine is a newly discovered endocannabinoid with pleiotropic activities relevant to supporting physical and mental health” (Scientific Reports, 2022).
